Patent US6160004A, “C-10 carbon-substituted artemisinin-like trioxane compounds having antimalarial, antiproliferative and antitumor activities” (priority 1998, dated 2000)

Key:
[1] = system: K-562; assay: cells; assay type: cell-based; details: Homo sapiens, K562; K-562, leukemia, 48 h; read-out: Log10 TGI (converted)
[2] = system: RPMI-8226; assay: NCI 60 cell line panel screening assay (SRB), RPMI-8226; assay type: cell-based; details: Homo sapiens; RPMI-8226, leukemia, 48 h; read-out: Log10 GI50 (converted)
[3] = system: HOP-62; assay: cells; assay type: cell-based; details: Homo sapiens; HOP-62, non-small cell lung cancer, 48 h; read-out: Log10 GI50 (converted)
[4] = system: NCI-H23; assay: cells; assay type: cell-based; details: Homo sapiens; NCI-H23, non-small cell lung cancer, 48 h; read-out: Log10 GI50 (converted)
[5] = system: HCT-15; assay: cells; assay type: cell-based; details: Homo sapiens, HCT-15, colon cancer, 48 h
[6] = system: SW-620; assay: NCI 60 cell line panel screening assay (SRB), SW-620; assay type: cell-based; details: Homo sapiens; SW-620, colon cancer, 48 h; read-out: Log10 GI50 (converted)
[7] = system: SNB-19; assay: cells; assay type: cell-based; details: Homo sapiens, SNB-19, CNS cancer, 48 h
[8] = system: U251; assay: cells; assay type: cell-based; details: Homo sapiens, U-251; U251, CNS cancer, 48 h; read-out: Log10 GI50 (converted)
[9] = system: UACC-257; assay: cells; assay type: cell-based; details: Homo sapiens, UACC-257, 48 h
[10] = system: UACC-62; assay: cells; assay type: cell-based; details: Homo sapiens, UACC-62, melanoma, 48 h
[11] = system: OVCAR-5; assay: cells; assay type: cell-based; details: Homo sapiens; OVCAR-5, ovarian cancer, 48 h; read-out: Log10 GI50 (converted)
[12] = system: OVCAR-8; assay: cells; assay type: cell-based; details: Homo sapiens; OVCAR-8, ovarian cancer, 48 h; read-out: Log10 GI50 (converted)
[13] = system: 786-0; assay: cells; assay type: cell-based; details: Homo sapiens, 786-0, renal cancer, 48 h
[14] = system: A498; assay: cells; assay type: cell-based; details: Homo sapiens, A498, renal cancer, 48 h
[15] = system: RXF 393; assay: cells; assay type: cell-based; details: Homo sapiens; RXF 393, renal cancer, 48 h; read-out: Log10 TGI
[16] = system: SN12C; assay: NCI 60 cell line panel screening assay (SRB), SN12C; assay type: cell-based; details: Homo sapiens, renal cancer, 48 h, read-out: Log10 TGI
[17] = system: TK-10; assay: cells; assay type: cell-based; details: Homo sapiens, TK-10, renal cancer, 48 h
[18] = system: PC-3; assay: cells; assay type: cell-based; details: Homo sapiens; PC-3, prostate cancer, 48 h; read-out: Log10 TGI
[19] = system: MCF7; assay: cells; assay type: cell-based; details: Homo sapiens, MCF7, breast cancer, 48 h
[20] = system: HS 578T; assay: cells; assay type: cell-based; details: Homo sapiens; HS 578T, breast cancer, 48 h; read-out: Log10 GI50 (converted)
[21] = system: MDA-N; assay: NCI 60 cell line panel screening assay (SRB), MDA-N; assay type: cell-based; details: Homo sapiens, breast cancer, 48 h, read-out: Log10 GI50 (converted)
[22] = system: MOLT-4; assay: cells; details: Homo sapiens
[23] = system: M14; assay: NCI 60 cell line panel screening assay (SRB), M14; details: Homo sapiens, M14, 48 h, read-out: Log10 LC50 (converted)
[24] = system: T-47D; assay: NCI 60 cell line panel screening assay (SRB), T-47D; details: Homo sapiens, T47D, 48 h, read-out: Log10 TGI
[25] = read-out: Log10 GI50 (converted)

C[C@@H]1CC[C@H]2[C@@H](C)C(=O)O[C@@H]3O[C@@]4(C)CC[C@@H]1[C@]32OO4 [Artemisinin]
IC (TGI) [1]: 100 µM | GI50 [2]: > 100 µM | GI50 [3]: > 100 µM | GI50 [4]: > 100 µM | GI50 [5, 25]: > 100 µM | IC (TGI) ([5]; read-out: Log10 TGI): > 100 µM | GI50 [6]: > 100 µM | GI50 [7, 25]: > 100 µM | IC (TGI) ([7]; read-out: Log10 TGI): > 100 µM | GI50 [8]: > 100 µM | GI50 [9, 25]: > 100 µM | IC (TGI) ([9]; read-out: Log10 TGI (converted)): > 100 µM | GI50 [10, 25]: > 100 µM | IC (TGI) ([10]; read-out: Log10 TGI): > 100 µM | GI50 [11]: > 100 µM | GI50 [12]: > 100 µM | GI50 [13, 25]: > 100 µM | IC (TGI) ([13]; read-out: Log10 TGI): > 100 µM | GI50 [14, 25]: > 100 µM | IC (TGI) ([14]; read-out: Log10 TGI): > 100 µM | IC (TGI) [15]: > 100 µM | IC (TGI) [16]: > 100 µM | GI50 [17, 25]: > 100 µM | IC (TGI) ([17]; read-out: Log10 TGI): > 100 µM | IC (TGI) [18]: > 100 µM | GI50 [19, 25]: > 100 µM | IC (TGI) ([19]; read-out: Log10 TGI): > 100 µM | GI50 [20]: > 100 µM | GI50 [21]: > 100 µM | GI50 ([22]; MOLT-4, 48 h, read-out: Log10 GI50 (converted)): 18.6 µM | IC (TGI) ([22]; MOLT-4, 48 h, read-out: Log10 TGI): 100 µM | IC50 ([22]; MOLT-4, read-out: concentration for primary growth inhibition (PG +50)): > 100 µM | CC50 [23]: > 100 µM | IC (TGI) [24]: > 100 µM
